Results: US20200237766A1, “PKM2 ACTIVATORS IN COMBINATION WITH REACTIVE OXYGEN SPECIES FOR TREATMENT OF CANCER” (TOLERO PHARMACEUTICALS, INC., priority 2017, published 2020)
Where two headings read alike, the source gives them in different places.

Target: PKM2 (Homo sapiens, UniProt P14618)
Test: PKM2 activation biochemical assay (AC50 / max. response vs fructose 1,6-bisphosphate)
Conditions: for Max. Resp. (%): % maximum response in a biochemical assay as compared with Fructose 1,6-bisphosphate
[1] = biochemical assay, read-out: PKM2 AC50

Sequence of PKM2 (P14618 whole entry): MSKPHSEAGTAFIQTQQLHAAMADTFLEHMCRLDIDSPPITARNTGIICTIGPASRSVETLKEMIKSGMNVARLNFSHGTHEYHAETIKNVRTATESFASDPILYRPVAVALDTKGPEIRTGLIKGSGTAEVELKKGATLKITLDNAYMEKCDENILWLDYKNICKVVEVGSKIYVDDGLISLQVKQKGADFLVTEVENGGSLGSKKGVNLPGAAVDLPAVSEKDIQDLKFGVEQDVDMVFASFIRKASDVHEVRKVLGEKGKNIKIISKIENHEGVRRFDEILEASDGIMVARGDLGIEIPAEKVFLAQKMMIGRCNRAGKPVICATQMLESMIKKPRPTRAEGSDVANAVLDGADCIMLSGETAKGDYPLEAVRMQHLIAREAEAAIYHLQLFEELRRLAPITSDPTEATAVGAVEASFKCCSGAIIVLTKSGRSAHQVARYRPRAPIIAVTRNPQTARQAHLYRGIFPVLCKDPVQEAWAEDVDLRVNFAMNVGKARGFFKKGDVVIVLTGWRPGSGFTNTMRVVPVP

## O=C(c1cc(C(F)(F)F)n[nH]1)N(CCC1CC1)Cc1ccc(O)cc1F [Compound 140]
  Max. Resp. (%): 100%
[1]
  AC50: 32 nM

## Nc1cccc(Cl)c1CN(CCN1CCS(=O)(=O)CC1)C(=O)c1cc(C(F)(F)F)n[nH]1 [Compound 224]
  Max. Resp. (%): 100%
[1]
  AC50: 410 nM

## CO[C@H]1CC[C@H](N(Cc2cccc(N)c2)C(=O)c2cc(C(F)(F)F)n[nH]2)CC1 [Compound 54]
  Max. Resp. (%): 93%
[1]
  AC50: 365 nM

## O=C(c1cc(C(F)(F)F)n[nH]1)N(CCN1CCCC(O)C1)Cc1ccccc1Cl (stereo not shown) [Compound 220]
  Max. Resp. (%): 100%
[1]
  AC50: 465 nM

## O=C(c1cc(C(F)(F)F)n[nH]1)N(CCC1CCS(=O)(=O)C1)Cc1c(Cl)cccc1Cl (stereo not shown) [Compound 64]
  Max. Resp. (%): 71%
[1]
  AC50: 3780 nM

## O=C(c1cc(C(F)(F)F)n[nH]1)N(CCN1CCS(=O)(=O)CC1)Cc1ccccc1F [Compound 108]
  AC50: 7800 nM
  Max. Resp. (%): 92%

## O=C(c1cc(C(F)(F)F)n[nH]1)N(CCN1CCCC1)Cc1ccccc1Cl [Compound 162]
  AC50: 107 nM
  Max. Resp. (%): 100%

## O=C(c1cc(Cl)n[nH]1)N(Cc1cccc2[nH]c(=O)sc12)CC1CCC1 [Compound 9]
  Max. Resp. (%): 80%
[1]
  AC50: 15400 nM

## CCN(CC)CCN(Cc1ccccc1F)C(=O)c1cc(C(F)(F)F)n[nH]1 [Compound 148]
  AC50: 505 nM
  Max. Resp. (%): 100%

## CCCN(CC)CCN(Cc1ccccc1Cl)C(=O)c1cc(C(F)(F)F)n[nH]1 [Compound 209]
  Max. Resp. (%): 100%
[1]
  AC50: 52 nM

## O=c1cc(Cn2cnc3ccccc32)nc2ccccn12 [PP4]
  Max. Resp. (%): 161%
[1]
  AC50: 340 nM

## CCN(CC)CCN(Cc1cccc2[nH]cnc12)C(=O)c1cc(C(F)(F)F)n[nH]1 [Compound 160]
  Max. Resp. (%): 100%
[1]
  AC50: 825 nM

## O=C(c1cc(C(F)(F)F)n[nH]1)N(Cc1cccc2[nH]ccc12)CC1COC1 [Compound 12]
  Max. Resp. (%): 101%
[1]
  AC50: 3270 nM

## N#Cc1ccc(C(=O)CCSC(=S)NCc2cccnc2)cc1 [PMA12]
  Max. Resp. (%): 61%
[1]
  AC50: 4390 nM

## CCN(CC)CCN(Cc1cc(Cl)ccc1Cl)C(=O)c1cc(C(F)(F)F)n[nH]1 [Compound 168]
  Max. Resp. (%): 100%
[1]
  AC50: 97 nM

## O=C(c1cc(C(F)(F)F)n[nH]1)N(Cc1ccccc1Cl)CC1CCN1 (stereo not shown) [Compound 227]
  Max. Resp. (%): 100%
[1]
  AC50: 215 nM

## CCN1CCC(CCN(Cc2ccccc2Cl)C(=O)c2cc(C(F)(F)F)n[nH]2)CC1 [Compound 101]
  Max. Resp. (%): 96%
[1]
  AC50: 1860 nM

## O=C(c1cc(C(F)(F)F)n[nH]1)N(CCN1CCCC1)Cc1ccccc1F [Compound 158]
  Max. Resp. (%): 100%
[1]
  AC50: 265 nM

## Nc1cccc(CN(CCN2CCS(=O)(=O)CC2)C(=O)c2cc(C(F)(F)F)n[nH]2)c1 [Compound 112]
  Max. Resp. (%): 91%
[1]
  AC50: 1070 nM

## CCN(CC)CCCN(Cc1ccccc1Cl)C(=O)c1cc(C(F)(F)F)n[nH]1 [Compound 185]
  Max. Resp. (%): 53%
[1]
  AC50: 1750 nM

## O=C(c1cc(C(F)(F)F)n[nH]1)N(Cc1ccccc1Cl)CC1CCC1 [Compound 127]
  AC50: 258 nM
  Max. Resp. (%): 100%

## CC1CCN(CCN(Cc2ccccc2Cl)C(=O)c2cc(C(F)(F)F)n[nH]2)CC1 [Compound 190]
  Max. Resp. (%): 100%
[1]
  AC50: 42 nM

## O=C(c1cc(C(F)(F)F)n[nH]1)N(CCC1CCS(=O)(=O)C1)Cc1cccc(F)c1F (stereo not shown) [Compound 68]
  Max. Resp. (%): 103%
[1]
  AC50: 766 nM

## Nc1cccc(Cl)c1CN(CCN1CCCC1)C(=O)c1cc(C(F)(F)F)n[nH]1 [Compound 222]
  AC50: 56 nM
  Max. Resp. (%): 100%

## CC1CCCN(CCN(Cc2ccccc2F)C(=O)c2cc(C(F)(F)F)n[nH]2)C1 (stereo not shown) [Compound 201]
  Max. Resp. (%): 100%
[1]
  AC50: 215 nM

## Nc1cccc(CN(CCN2CCCCCC2)C(=O)c2cc(C(F)(F)F)n[nH]2)c1Cl [Compound 213]
  AC50: 60 nM
  Max. Resp. (%): 100%

## CC(CN(Cc1ccccc1Cl)C(=O)c1cc(C(F)(F)F)n[nH]1)N1CCCC1 (stereo not shown) [Compound 181]
  Max. Resp. (%): 100%
[1]
  AC50: 430 nM

## O=C(c1cc(C(F)(F)F)n[nH]1)N(Cc1ccncc1Cl)CC1CCC1 [Compound 128]
  Max. Resp. (%): 75%
[1]
  AC50: 9300 nM

## O=C(CCSC(=S)NCc1cccnc1)c1ccc([N+](=O)[O-])cc1 [PMA13]
  Max. Resp. (%): 49%
[1]
  AC50: 2760 nM

## Nc1ccc(F)c(CN(CCN2CCCCCC2)C(=O)c2cc(C(F)(F)F)n[nH]2)c1 [Compound 214]
  Max. Resp. (%): 100%
[1]
  AC50: 153 nM

## NCCN(Cc1ccc(O)cc1F)C(=O)c1cc(C(F)(F)F)n[nH]1 [Compound 133]
  Max. Resp. (%): 100%
[1]
  AC50: 1270 nM

## CC(C)OCCN(Cc1ccccc1Cl)C(=O)c1cc(C(F)(F)F)n[nH]1 [Compound 37]
  Max. Resp. (%): 37%
[1]
  AC50: 42000 nM

## O=C(CCSC(=S)NCc1cccnc1)c1cnc2ccccn12 [PMA33]
  Max. Resp. (%): 101%
[1]
  AC50: 18100 nM

## O=C(c1cc(Br)n[nH]1)N(Cc1ccc(O)cc1F)CC1CCC1 [Compound 245]
  Max. Resp. (%): 100%
[1]
  AC50: 35 nM

## Nc1cccc(Cl)c1CN(CCN1CCC(F)CC1)C(=O)c1cc(C(F)(F)F)n[nH]1 [Compound 238]
  Max. Resp. (%): 100%
[1]
  AC50: 116 nM

## Nc1cccc(Cl)c1CN(CCN1CCCCCC1)C(=O)c1cc(C(F)(F)F)n[nH]1 [Compound 218]
  Max. Resp. (%): 100%
[1]
  AC50: 41 nM

## CCN(CC)CCN(Cc1cccc2[nH]ccc12)C(=O)c1cc(C(F)(F)F)n[nH]1 [Compound 161]
  Max. Resp. (%): 100%
[1]
  AC50: 76 nM

## CCOCCN(Cc1ccccc1F)C(=O)c1cc(C(F)(F)F)n[nH]1 [Compound 30]
  Max. Resp. (%): 72%

## O=C(c1cc(C(F)(F)F)n[nH]1)N(Cc1ccccc1F)CC1CCOCC1 [Compound 45]
  Max. Resp. (%): 52%
[1]
  AC50: 25100 nM

## O=C(CCSC(=S)NCc1cccnc1)c1ccc(OCc2ccccc2)cc1 [PMA15]
[1]
  AC50: > 20000 nM

## O=C(CCSC(=S)NCc1cccnc1)c1ccc(O)cc1 [PMA11]
  Max. Resp. (%): 76%
[1]
  AC50: 6230 nM

## CC1CCCCN1CCN(Cc1ccccc1Cl)C(=O)c1cc(C(F)(F)F)n[nH]1 (stereo not shown) [Compound 192]
  Max. Resp. (%): 100%
[1]
  AC50: 104 nM

## CCN(CC)CCN(Cc1ccccc1Cl)C(=O)c1cc(Br)n[nH]1 [Compound 175]
  AC50: 305 nM
  Max. Resp. (%): 100%

## O=C(c1cc(C(F)(F)F)n[nH]1)N(CCC1CCOC1)Cc1ccc(O)cc1F (stereo not shown) [Compound 34]
  Max. Resp. (%): 109%
[1]
  AC50: 77 nM

## CCN1CCC(CCN(Cc2c(Cl)cccc2Cl)C(=O)c2cc(C(F)(F)F)n[nH]2)CC1 [Compound 105]
  Max. Resp. (%): 71%
[1]
  AC50: 3270 nM

## CC(c1ccccc1)N(CC1CCC1)C(=O)c1cc(C(F)(F)F)n[nH]1 (stereo not shown) [Compound 5]
  Max. Resp. (%): 106%
[1]
  AC50: 4650 nM

## O=C(c1cc(C(F)(F)F)n[nH]1)N(Cc1ccccc1Cl)CC1CCCN1 (stereo not shown) [Compound 232]
  Max. Resp. (%): 85%
[1]
  AC50: 320 nM

## CCN(CC)CCN(Cc1ccc(F)cc1Cl)C(=O)c1cc(C(F)(F)F)n[nH]1 [Compound 170]
  AC50: 505 nM
  Max. Resp. (%): 100%

## O=C(CCSC(=S)NCc1cccnc1)c1cccs1 [PMA26]
  Max. Resp. (%): 20%
[1]
  AC50: > 20000 nM

## O=C(c1cc(C(F)(F)F)n[nH]1)N(Cc1ccccc1Cl)CC1CCS(=O)(=O)CC1 [Compound 72]
  Max. Resp. (%): 22%
[1]
  AC50: 19700 nM

## O=C(c1cc(C(F)(F)F)n[nH]1)N(Cc1ccccc1Cl)CC1COC1 [Compound 27]
  AC50: 33000 nM
  Max. Resp. (%): 47%

## CCCN(CC)CCN(Cc1c(N)cccc1F)C(=O)c1cc(C(F)(F)F)n[nH]1 [Compound 240]
  Max. Resp. (%): 100%
[1]
  AC50: 68 nM

## CC(C)(C)CN(Cc1cccc2[nH]ccc12)C(=O)c1cc(C(F)(F)F)n[nH]1 [Compound 13]
  Max. Resp. (%): 33%
[1]
  AC50: 49100 nM

## CCOCCN(Cc1ccc(O)cc1F)C(=O)c1cc(C(F)(F)F)n[nH]1 [Compound 24]
  Max. Resp. (%): 100%
[1]
  AC50: 210 nM

## CC1CCCN(CCN(Cc2cc(N)ccc2Cl)C(=O)c2cc(C(F)(F)F)n[nH]2)C1 (stereo not shown) [Compound 200]
  Max. Resp. (%): 100%
[1]
  AC50: 130 nM

## CCN(CC)CCN(Cc1cccc(N)c1)C(=O)c1cc(C(F)(F)F)n[nH]1 [Compound 154]
  Max. Resp. (%): 100%
[1]
  AC50: 1430 nM

## O=C(c1cc(C(F)(F)F)n[nH]1)N(Cc1cccc2[nH]c(=O)sc12)CC1CCC1 [Compound 7]
  Max. Resp. (%): 87%
[1]
  AC50: 3450 nM

## O=C(c1cc(C(F)(F)F)n[nH]1)N(Cc1cccc2c1CCN2)CC1CCC1 [Compound 14]
  Max. Resp. (%): 81%

## CCCN(CC)CCN(Cc1c(N)cccc1Cl)C(=O)c1cc(C(F)(F)F)n[nH]1 [Compound 223]
  AC50: 32 nM
  Max. Resp. (%): 100%

## CN(C)CCN(Cc1ccccc1Cl)C(=O)c1cc(C(F)(F)F)n[nH]1 [Compound 187]
  Max. Resp. (%): 100%
[1]
  AC50: 295 nM

## Cc1csc2nc(Cn3cnc4ccccc43)cc(=O)n12 [PP16]
[1]
  AC50: 127 nM

## O=c1cc(Cn2cnc3ccccc32)nc2scc(-c3ccccc3)n12 [PP15]
[1]
  AC50: 1030 nM

## CC1CCCC(C)N1CCN(Cc1ccccc1Cl)C(=O)c1cc(C(F)(F)F)n[nH]1 (stereo not shown) [Compound 212]
  Max. Resp. (%): 53%
[1]
  AC50: 5810 nM

## O=C(c1cc(C(F)(F)F)n[nH]1)N(CCC1CCSCC1)Cc1ccccc1Cl [Compound 73]
  Max. Resp. (%): 79%
[1]
  AC50: 1340 nM

## Nc1ccc(Cl)c(CN(CCN2CCCCCC2)C(=O)c2cc(C(F)(F)F)n[nH]2)c1 [Compound 196]
  Max. Resp. (%): 100%
[1]
  AC50: 99 nM

## CCN(CCN(Cc1ccccc1Cl)C(=O)c1cc(C(F)(F)F)n[nH]1)C(C)C [Compound 204]
  Max. Resp. (%): 53%
[1]
  AC50: 880 nM

## O=C(c1cc(Cl)n[nH]1)N(Cc1ccncc1F)CC1CCC1 [Compound 116]
[1]
  AC50: 38000 nM

## O=C(c1cc(C(F)(F)F)n[nH]1)N(CCC1CCS(=O)(=O)CC1)Cc1ccccc1Cl [Compound 78]
[1]
  AC50: 485 nM

## O=c1cc(Cn2cnc3ccccc32)nc2sccn12 [PP18]
[1]
  AC50: 266 nM
